The values below come from US11247965B2 (VenatoRx Pharmaceuticals, Inc., priority 2017, dated 2022).

In data set [1] the test system is HBV replication in HepAD38 cells. Description: Anti-HBV activity in HepAD38 cells, extracellular HBV DNA by QPCR. The data set is classed as cell-based, HBV (genotype D, serotype ayw). The note with it: Hepatitis B virus, HePAD38, 168 h, read-out: Anti-HBV EC50, HepAD38 cells, extracellular HBV DNA by QPCR, 7 days of incubation. Put shortly: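 Seven-day compound exposure (30 μM down to 10 nM, half-log steps) after tetracycline withdrawal induced HBV replication in HepAD38 cells. Extracellular viral DNA measured by QPCR (copies/mL via standard curve), normalised to DMSO wells; EC50 from 4-parameter non-linear regression.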

A short description of data set [2]: In vitro cytotoxicity, MTT cell viability assay in HepG2 cells. The data set is classed as cell-based. The following applies: human, Cytotoxicity CC50. Put shortly:
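Viability measured by MTT conversion, absorbance at 492 nm, as percent of vehicle-treated wells. Compounds spanned 30 μM to 1.0 nM in half-log steps over a 7-day exposure of parental HepG2 cells; CC50 derived by 4-parameter curve fit.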

Regarding `Cc1cc(NC(=O)c2cc(F)cc(C(F)(F)C(=O)N3[C@@H]4CC[C@H]3C[C@H](O)C4)c2)ccc1F` [Example 219, 3-(1,1-difluoro-2-((1R,3s,5S)-3-hydroxy-8-azabicyclo[3.2.1]octan-8-yl)-2-oxoethyl)-5-fluoro-N-(4-fluoro-3-methylphenyl)benzamide], the EC50 in data set [1] lay in the range of 5 to 30 µM. The half-maximal cytotoxic concentration (CC50) at 7 days in data set [2] was in the range of 5 to 30 µM.
Turning to `CCCN(CCO)C(=O)C(F)(F)c1cc(C(=O)Nc2ccc(F)c(F)c2)ccc1F` [Example 52, 3-(1,1-difluoro-2-((2-hydroxyethyl)(propyl)amino)-2-oxoethyl)-N-(3,4-difluorophenyl)-4-fluorobenzamide], in data set [1], the EC50 lay within 5 to 30 µM. In data set [2], the CC50 at 7 days is greater than 30 µM.
For `N#Cc1cc(NC(=O)c2ccc(Cl)c(C(F)(F)C(=O)N3CCC(O)CC3)c2)ccc1F` [Example 33, 4-chloro-N-(3-cyano-4-fluorophenyl)-3-(1,1-difluoro-2-(4-hydroxypiperidin-1-yl)-2-oxoethyl)benzamide], the concentration for a half-maximal effect (EC50) in data set [1] was less than 5 µM. In data set [2], the CC50 at 7 days is greater than 30 µM.
In the same order, the values of `O=C(Nc1ccc(F)c(F)c1)c1ccc(F)c(C(F)C(=O)N2CCC(O)CC2)c1` (stereo not shown) [Example 32, N-(3,4-difluorophenyl)-4-fluoro-3-(1-fluoro-2-(4-hydroxypiperidin-1-yl)-2-oxoethyl)benzamide] are less than 5 µM and 5 to 30 µM.
Taken in the same sequence, the figures for `O=C(Nc1ccc(F)c(F)c1)c1ccc(F)c(C(F)(F)C(=O)NC2CCCC2)c1` [Example 20, 3-(2-(cyclopentylamino)-1,1-difluoro-2-oxoethyl)-N-(3,4-difluorophenyl)-4-fluorobenzamide] were 5 to 30 µM and 5 to 30 µM.
Taken in the same sequence, the figures for `Cc1cc(NC(=O)c2ccc(F)c(C(F)(F)C(=O)N3[C@@H]4CCC[C@H]3CC(=O)C4)c2)ccc1F` [Example 200, 3-(1,1-difluoro-2-oxo-2-((1R,5S)-3-oxo-9-azabicyclo[3.3.1]nonan-9-yl)ethyl)-4-fluoro-N-(4-fluoro-3-methylphenyl)benzamide] were less than 5 µM and 5 to 30 µM.
Regarding `Cc1cc(NC(=O)c2ccc(Cl)c(C(F)(F)C(=O)N3CC[C@H](O)[C@H](O)C3)c2)ccc1F` [Example 58, 4-chloro-3-(2-((3R,4S)-3,4-dihydroxypiperidin-1-yl)-1,1-difluoro-2-oxoethyl)-N-(4-fluoro-3-methylphenyl)benzamide], in data set [1], the EC50 is less than 5 µM. The molecule also came in with a CC50 at 7 days in data set [2] greater than 30 µM.
Taken in the same sequence, the figures for `Cc1cc(NC(=O)c2ccc(F)c(C(F)(F)C(=O)N3[C@@H]4CC[C@H]3C[C@H](N)C4)c2)ccc1F` [Example 228, 3-(2-((1R,3s,5S)-3-amino-8-azabicyclo[3.2.1]octan-8-yl)-1,1-difluoro-2-oxoethyl)-4-fluoro-N-(4-fluoro-3-methylphenyl)benzamide] were less than 5 µM and 5 to 30 µM.
As to `O=C(Nc1ccc(F)c(Br)c1)c1ccc(F)c(C(F)(F)C(=O)N2CCC(O)C(F)(F)C2)c1` (stereo not shown) [Example 175, N-(3-bromo-4-fluorophenyl)-3-(2-(3,3-difluoro-4-hydroxypiperidin-1-yl)-1,1-difluoro-2-oxoethyl)-4-fluorobenzamide], in data set [1], the EC50 was less than 5 µM. The CC50 at 7 days in data set [2] lay within 5 to 30 µM.
`O=C(Nc1ccc(F)c(Br)c1)c1ccc(F)c(C(F)(F)C(=O)N2CCC(O)CC2)c1` [Example 87, N-(3-bromo-4-fluorophenyl)-3-(1,1-difluoro-2-(4-hydroxypiperidin-1-yl)-2-oxoethyl)-4-fluorobenzamide]: the EC50 in data set [1] is less than 5 µM. This molecule displayed a CC50 at 7 days in data set [2] of 5 to 30 µM.
In the case of `O=C(Nc1ccc(F)c(F)c1)c1ccc(F)c(C(F)(F)C(=O)NC[C@H](O)CO)c1` [Example 54, (S)—N-(3,4-difluorophenyl)-3-(2-((2,3-dihydroxypropyl)amino)-1,1-difluoro-2-oxoethyl)-4-fluorobenzamide], the EC50 in data set [1] is less than 5 µM. The molecule further returned a CC50 at 7 days in data set [2] greater than 30 µM.
As to `O=C(Nc1ccc(F)c(Br)c1)c1ccc(F)c(C(F)(F)C(=O)N2[C@@H]3CC[C@H]2C[C@H](O)C3)c1` [Example 189, N-(3-bromo-4-fluorophenyl)-3-(1,1-difluoro-2-((1R,3s,5S)-3-hydroxy-8-azabicyclo[3.2.1]octan-8-yl)-2-oxoethyl)-4-fluorobenzamide], in data set [1], the EC50 is less than 5 µM. For the same molecule, the CC50 at 7 days in data set [2] was in the range of 5 to 30 µM.
Taken in the same sequence, the figures for `Cc1cc(NC(=O)c2ccc(F)c(C(F)(F)C(=O)N3[C@H]4CC[C@@H]3c3cn[nH]c3C4)c2)ccc1F` [Example 265, 3-(1,1-difluoro-2-((4R,7S)-1,4,5,6,7,8-hexahydro-4,7-epiminocyclohepta[c]pyrazol-9-yl)-2-oxoethyl)-4-fluoro-N-(4-fluoro-3-methylphenyl)benzamide] were less than 5 µM and 5 to 30 µM.
`CCC(C)NC(=O)C(F)(F)c1cc(C(=O)Nc2ccc(F)c(Cl)c2)cn1C` (stereo not shown) [Example 136, 5-(2-(sec-butylamino)-1,1-difluoro-2-oxoethyl)-N-(3-chloro-4-fluorophenyl)-1-methyl-1H-pyrrole-3-carboxamide]: the EC50 in data set [1] lay within 5 to 30 µM. In data set [2], the CC50 at 7 days is greater than 30 µM.
Taken in the same sequence, the figures for `Cc1cc(NC(=O)c2cc(Br)c(C(F)(F)C(=O)NC(C)(C)C)s2)ccc1F` [Example 158, 4-bromo-5-(2-(tert-butylamino)-1,1-difluoro-2-oxoethyl)-N-(4-fluoro-3-methylphenyl)thiophene-2-carboxamide] were 5 to 30 µM and 5 to 30 µM.
`Cc1cc(NC(=O)c2ccc(F)c(C(F)(F)C(=O)N3CCC[C@H]3B(O)O)c2)ccc1F` [Example 153, (R)-(1-(2,2-difluoro-2-(2-fluoro-5-((4-fluoro-3-methylphenyl)carbamoyl)phenyl)acetyl)pyrrolidin-2-yl)boronic acid]: the concentration giving a half-maximal response (EC50) in data set [1] is less than 5 µM. In addition, in data set [2], the CC50 at 7 days is greater than 30 µM.
Taken in the same sequence, the figures for `CC[C@H](C)NC(=O)C(F)(F)c1c(C(=O)Nc2ccc(F)c(C)c2)ccn1C` [Example 108, (S)-2-(2-(sec-butylamino)-1,1-difluoro-2-oxoethyl)-N-(4-fluoro-3-methylphenyl)-1-methyl-1H-pyrrole-3-carboxamide] were less than 5 µM and greater than 30 µM.
Turning to `Cc1cc(NC(=O)c2ccc(F)c(C(F)(F)C(=O)N3Cc4sc(N)nc4C(C)(C)C3)c2)ccc1F` [Example 339, 3-(2-(2-amino-7,7-dimethyl-6,7-dihydrothiazolo[5,4-c]pyridin-5(4H)-yl)-1,1-difluoro-2-oxoethyl)-4-fluoro-N-(4-fluoro-3-methylphenyl)benzamide], in data set [1], the EC50 is less than 5 µM. Moreover, the CC50 at 7 days in data set [2] lay within 5 to 30 µM.
For `O=C(Nc1ccc(F)c(Br)c1)c1ccc(F)c(C(F)(F)C(=O)N2CCC(O)(CO)CC2)c1` [Example 190, N-(3-bromo-4-fluorophenyl)-3-(1,1-difluoro-2-(4-hydroxy-4-(hydroxymethyl)piperidin-1-yl)-2-oxoethyl)-4-fluorobenzamide], in data set [1], the half-maximal effective concentration (EC50) was less than 5 µM. The molecule further registered a CC50 at 7 days in data set [2] of 5 to 30 µM.
In the same order, the values of `Cn1ccc(C(=O)Nc2ccc(F)c(Cl)c2)c1C(F)(F)C(=O)NOC(C)(C)C` [Example 145, 2-(2-(tert-butoxyamino)-1,1-difluoro-2-oxoethyl)-N-(3-chloro-4-fluorophenyl)-1-methyl-1H-pyrrole-3-carboxamide] are 5 to 30 µM and greater than 30 µM.
In the same order, the values of `CC(=O)Nc1nc2c(s1)CN(C(=O)C(F)(F)c1cc(C(=O)Nc3ccc(F)c(C)c3)ccc1F)CC2` [Example 288, 3-(2-(2-acetamido-6,7-dihydrothiazolo[5,4-c]pyridin-5(4H)-yl)-1,1-difluoro-2-oxoethyl)-4-fluoro-N-(4-fluoro-3-methylphenyl)benzamide] are less than 5 µM and 5 to 30 µM.
Taken in the same sequence, the figures for `Cc1cc(NC(=O)c2c(C)c(C(O)(C(=O)NC(C)(C)C)C(F)(F)F)c(C)n2C)ccc1F` (stereo not shown) [Example 131, 4-(3-(tert-butylamino)-1,1,1-trifluoro-2-hydroxy-3-oxopropan-2-yl)-N-(4-fluoro-3-methylphenyl)-1,3,5-trimethyl-1H-pyrrole-2-carboxamide] were 5 to 30 µM and 5 to 30 µM.
Consider `CC(=O)N1C[C@@H](C)N(C(=O)C(F)(F)c2cc(C(=O)Nc3ccc(F)c(C)c3)ccc2F)[C@@H](C)C1` [Example 294, 3-(2-((2S,6R)-4-acetyl-2,6-dimethylpiperazin-1-yl)-1,1-difluoro-2-oxoethyl)-4-fluoro-N-(4-fluoro-3-methylphenyl)benzamide], for which the 50% effective concentration (EC50) in data set [1] was less than 5 µM. The molecule further gave a CC50 at 7 days in data set [2] of 5 to 30 µM.
For `Cc1cc(NC(=O)c2ccc(F)c(C(F)(F)C(=O)N3[C@@H]4COC[C@H]3CC(=O)C4)c2)ccc1F` [Example 201, 3-(1,1-difluoro-2-oxo-2-((1R,5S)-7-oxo-3-oxa-9-azabicyclo[3.3.1]nonan-9-yl)ethyl)-4-fluoro-N-(4-fluoro-3-methylphenyl)benzamide], in data set [1], the EC50 was less than 5 µM. This molecule also had a CC50 at 7 days in data set [2] of 5 to 30 µM.
Take `Cc1cc(NC(=O)c2ccc(F)c(C(F)(F)C(=O)N3CCc4[nH]cnc4C3)c2)ccc1F` [Example 238, 3-(1,1-difluoro-2-oxo-2-(1,4,6,7-tetrahydro-5H-imidazo[4,5-c]pyridin-5-yl)ethyl)-4-fluoro-N-(4-fluoro-3-methylphenyl)benzamide]: the EC50 in data set [1] is less than 5 µM. This molecule also showed a CC50 at 7 days in data set [2] greater than 30 µM.
With `Cc1cc(NC(=O)c2ccc(F)c(C(F)(F)C(=O)N3CCC(O)C(CO)C3)c2)ccc1F` (stereo not shown) [Example 69, 3-(1,1-difluoro-2-(4-hydroxy-3-(hydroxymethyl)piperidin-1-yl)-2-oxoethyl)-4-fluoro-N-(4-fluoro-3-methylphenyl)benzamide], the EC50 in data set [1] is less than 5 µM. In addition, the CC50 at 7 days in data set [2] is greater than 30 µM.
